Results: patent US10849878B2 (OBSHCHESTVO S OGRANICHENNOY OTVETSTVENNOSTYU “NORMOFARM”, priority 2015, dated 2020)

Experiments:
Format in all cases: in vivo, rat
white Wistar rats [1] = test: suspension test (24 h), antistress and anxiolytic activity
Description: The anti-stress, anxiolytic and antidepressant effects of the claimed agent and compositions on its basis were determined as follows. […] The suspension test. Five animals from each group were used. Each animal was suspended for 24 hours. After that the sample of whole blood was taken from the sublingual vessels of that animal Then the animal was placed in a desiccator with diethyl ether. 60 minutes later a spinal decapitation of the animal was performed. The abdominal opening was performed and the number of ulcers on the inner surface of the stomach was counted. The obtained whole blood was placed in two test tubes. The whole blood was used to determine the number of eosinophils by the Duncker method. Serum was used to determine the biochemical composition of the blood. Adrenaline and norepinephrine were determined as biochemical indices. These characteristics are specific markers identifying the impact of stress factors of various etiologies. • 2. The transport stress simulation test. Five animals from each group were used. The animals were placed in cages fixed on a laboratory shutter. The duration of the test was 240 minutes. At the end of the test the animals were examined by the techniques described in paragraph 1. A sample of whole blood was taken to determine the number of eosinophils by the Duncker method. The blood serum was studied to measure the amount of enzymes: alanine aminotransferase (ALT), aspartate aminotransferase (AST), creatinine
The tests were carried out on 2-month-old rats of the Wistar line. The groups were selected according to the principle of paired counterparts.
During the course of the study the animals were selected from the formed groups of 10 animals each to participate in stress tests, 5 animals per test. The selection was made on the 7th, 14th, 21st day of the drug administration (experiments were performed on the same days right after selection). The animals were weighed weekly immediately before testing. The obtained data were processed by statistical methods of mathematical statistics. The drug was administered to the animals of the 2nd, 3rd and 4th groups in solution through a gastric tube. Water for injection produced by the “Bufus Novosibkhimpharm” was used as a solvent. The introduced volume was 1.5 ml. The solution was introduced at the same tine 2 hours after morning feeding. The first group was given water for injection by the same way. The volume of administration was 1.5 ml.
During the test a change in the reaction of the animals was observed during prolonged administration of the preparation. Three sequences of the experiment were performed with a periodicity of 7 days. The drug was administered from the first day of the study daily without a break. Thus, accumulation of the drug in the animal body occurred. Five animals from each group were used in each sequence of the experiment (the animals were suspended for 24 hours). After this, blood samples were taken from the sublingual vessels. Further, the animal was euthanized with diethyl ether. Decapitation and dissection of the abdominal cavity were performed to calculate the number of ulcers on the inner surface of the stomach. The rats as objects for the study of psychotropic drugs are a successful model. They react quickly to various stress factors. It is convenient to evaluate the efficacy of drugs due to various factors beginning with physiological, behavioral, biochemical and other parameters. In the suspension test, it is possible to determine the overall psycho-emotional state of the animal in addition to physical endurance.
The physiological, morphological and biochemical characteristics, such as the determination of ulcers in the stomach, eosinophils in whole blood, epinephrine and norepinephrine in blood serum were estimated as main and most informative indicators of the onset of a stress state in a living organism and of overall impact on the body. […]

white Wistar rats [2] = test: as above; settings: 60 mg/kg in the form of pills with cocoa, administration day 7
rats = test: Porsolt helplessness test
[3] = 30 mg/kg solution by gastric tube, administration day 7
[4] = 30 mg/kg solution by gastric tube, administration day 14
[5] = 30 mg/kg solution by gastric tube, administration day 21
[6] = 60 mg/kg in the form of pills with cocoa, administration day 7
[7] = 60 mg/kg in the form of pills with cocoa, administration day 14
[8] = 60 mg/kg in the form of pills with cocoa, administration day 21
[9] = 60 mg/kg solution by gastric tube, administration day 7
[10] = 60 mg/kg solution by gastric tube, administration day 14
[11] = 60 mg/kg solution by gastric tube, administration day 21
[12] = 120 mg/kg solution by gastric tube, administration day 7
[13] = 120 mg/kg solution by gastric tube, administration day 14
[14] = 120 mg/kg solution by gastric tube, administration day 21
[15] = 7 days after the dosing, LiAsc, LiCa 5 mg/kg, phenazepam 0.25 mg
[16] = 7 days after the drug withdrawal, 5 mg/kg
[17] = 28 days after the dosing, LiAsc, LiCa 5 mg/kg, phenazepam 0.25 mg
[18] = 28 days after the drug withdrawal, 5 mg/kg

O=C1O[C@H]([C@@H](O)CO)C([O-])=C1O.[Li+] [lithium ascorbate]
Adrenaline level in blood serum (white Wistar rats [1]; [3]): 8.1 ± 0.52 µg/L | Eosinophil count in whole blood (white Wistar rats [1]; [3]): 764 ± 6.5 | Noradrenaline level in blood serum (white Wistar rats [1]; [3]): 24.3 ± 2.2 µg/L | Number of ulcers in the stomach (white Wistar rats [1]; [3]): 4.5 ± 0.9 | Adrenaline level in blood serum (white Wistar rats [1]; [4]): 6.9 ± 2.77 µg/L | Eosinophil count in whole blood (white Wistar rats [1]; [4]): 897 ± 7.2 | Noradrenaline level in blood serum (white Wistar rats [1]; [4]): 18.2 ± 5.28 µg/L | Number of ulcers in the stomach (white Wistar rats [1]; [4]): 2.4 ± 0.2 | Adrenaline level in blood serum (white Wistar rats [1]; [5]): 6.9 ± 0.97 µg/L | Eosinophil count in whole blood (white Wistar rats [1]; [5]): 954 ± 9.7 | Noradrenaline level in blood serum (white Wistar rats [1]; [5]): 17.9 ± 0.95 µg/L | Number of ulcers in the stomach (white Wistar rats [1]; [5]): 1.9 ± 0.4 | Eosinophil count in whole blood (white Wistar rats [1]; [6]): 653 ± 9.2 | Noradrenaline level in blood serum (white Wistar rats [1]; [6]): 54.8 ± 10.4 µg/L | Number of ulcers in the stomach (white Wistar rats [1]; [6]): 8.7 ± 1.2 | Adrenaline level in blood serum (white Wistar rats [1]; [7]): 6.7 ± 0.96 µg/L | Eosinophil count in whole blood (white Wistar rats [1]; [7]): 913 ± 0.9 | Noradrenaline level in blood serum (white Wistar rats [1]; [7]): 18.4 ± 0.49 µg/L | Number of ulcers in the stomach (white Wistar rats [1]; [7]): 1.6 ± 0.9 | Adrenaline level in blood serum (white Wistar rats [1]; [8]): 7.9 ± 3.61 µg/L | Eosinophil count in whole blood (white Wistar rats [1]; [8]): 954 ± 3.6 | Noradrenaline level in blood serum (white Wistar rats [1]; [8]): 17.8 ± 0.98 µg/L | Number of ulcers in the stomach (white Wistar rats [1]; [8]): 1.5 ± 0.6 | Adrenaline level in blood serum (white Wistar rats [1]; [9]): 7.9 ± 0.21 µg/L | Eosinophil count in whole blood (white Wistar rats [1]; [9]): 791 ± 1.2 | Noradrenaline level in blood serum (white Wistar rats [1]; [9]): 22.1 ± 1.98 µg/L | Number of ulcers in the stomach (white Wistar rats [1]; [9]): 4.1 ± 0.8 | Adrenaline level in blood serum (white Wistar rats [1]; [10]): 7.1 ± 1.19 µg/L | Eosinophil count in whole blood (white Wistar rats [1]; [10]): 866 ± 9.4 | Noradrenaline level in blood serum (white Wistar rats [1]; [10]): 20.3 ± 3.49 µg/L | Number of ulcers in the stomach (white Wistar rats [1]; [10]): 2.6 ± 0.4 | Adrenaline level in blood serum (white Wistar rats [1]; [11]): 7.3 ± 2.14 µg/L | Eosinophil count in whole blood (white Wistar rats [1]; [11]): 910 ± 4.1 | Noradrenaline level in blood serum (white Wistar rats [1]; [11]): 19.3 ± 6.13 µg/L | Number of ulcers in the stomach (white Wistar rats [1]; [11]): 2.4 ± 0.5 | Adrenaline level in blood serum (white Wistar rats [1]; [12]): 7.6 ± 0.38 µg/L | Eosinophil count in whole blood (white Wistar rats [1]; [12]): 768 ± 6.7 | Noradrenaline level in blood serum (white Wistar rats [1]; [12]): 20.2 ± 5.67 µg/L | Number of ulcers in the stomach (white Wistar rats [1]; [12]): 4.0 ± 0.5 | Adrenaline level in blood serum (white Wistar rats [1]; [13]): 8.7 ± 3.82 µg/L | Eosinophil count in whole blood (white Wistar rats [1]; [13]): 885 ± 3.8 | Noradrenaline level in blood serum (white Wistar rats [1]; [13]): 20.3 ± 4.83 µg/L | Number of ulcers in the stomach (white Wistar rats [1]; [13]): 2.5 ± 1.1 | Adrenaline level in blood serum (white Wistar rats [1]; [14]): 9.6 ± 3.28 µg/L | Eosinophil count in whole blood (white Wistar rats [1]; [14]): 911 ± 8.2 | Noradrenaline level in blood serum (white Wistar rats [1]; [14]): 18.4 ± 5.27 µg/L | Number of ulcers in the stomach (white Wistar rats [1]; [14]): 2.1 ± 0.7 | all measured characteristics versus the control group (group #1) (white Wistar rats [1]; all the tests, oral aqueous solutions): 2.5-3.5 times | number of defecation acts, control animals versus treated animals (white Wistar rats [1]; control more than treated): 3-4 times | ulcer count versus the control group (group #1) (white Wistar rats [1]; oral aqueous solutions): more than 10 times | decrease in the level of adrenaline and norepinephrine (white Wistar rats [1]; versus control): 3,5-4 times | Adrenaline level in blood serum (white Wistar rats [2]): 22.6 ± 4.27 µg/L | Adrenalin (rats; [15]): 7.4 ± 1.4 µg/L | Duration of activity (rats; [15]): 356.4 ± 26.1 s | Duration of immobility (rats; [15]): 243.6 ± 17.6 s | Eosinophils (Dunger method) in mm^3 (rats; [15]): 783.2 ± 24.7 in mm^3 | Noradrenalin (rats; [15]): 19.9 ± 0.9 µg/L | Number of gastric ulcers (rats; [15]): 1.5 ± 0.6 | Adrenalin (rats; [16]): 8.4 ± 0.9 µg/L | Duration of activity (rats; [16]): 472.6 ± 29.3 s | Duration of immobility (rats; [16]): 127.3 ± 19.7 s | Eosinophils (Dunger method) in mm^3 (rats; [16]): 923.5 ± 64.2 in mm^3 | Noradrenalin (rats; [16]): 18.3 ± 3.2 µg/L | Number of gastric ulcers (rats; [16]): 1.6 ± 0.9 | Adrenalin (rats; [17]): 6.1 ± 0.6 µg/L | Duration of activity (rats; [17]): 506.4 ± 31.4 s | Duration of immobility (rats; [17]): 93.0 ± 19.3 s | Eosinophils (Dunger method) in mm^3 (rats; [17]): 987.3 ± 34.8 in mm^3 | Noradrenalin (rats; [17]): 15.6 ± 0.79 µg/L | Number of gastric ulcers (rats; [17]): 0.8 ± 0.2 | Adrenalin (rats; [18]): 20.3 ± 9.3 µg/L | Duration of activity (rats; [18]): 221.1 ± 19.8 s | Duration of immobility (rats; [18]): 377.9 ± 86.4 s | Eosinophils (Dunger method) in mm^3 (rats; [18]): 409.7 ± 37.9 in mm^3 | Noradrenalin (rats; [18]): 38.9 ± 10.9 µg/L | Number of gastric ulcers (rats; [18]): 5.9 ± 0.4
